Assay results published in US20150065440A1 (Progen Pharmaceuticals Limited, priority 2007, published 2015).

Experiments:
HEp-2 cells = experiment: Cytotoxicity assay, HEp-2; format: cell-based, Human; settings: cell viability reduced by 50%
HSV-1 [1] = experiment: Viral plaque number-reduction assay, HSV-1; settings: GMK AH1 cells
Method: (§1) African green monkey kidney (GMK AH1) cells^46 were cultured in Eagle's minimum essential medium (EMEM) supplemented with 2% calf serum, 0.05% Primaton RL substance (Kraft Inc., Norwich, USA) and antibiotics. Human epidermoid carcinoma (HEp-2) cells were cultured in Dulbecco's modified EMEM (DMEM) supplemented with 10% fetal calf serum and antibiotics. […] The RSV strain A-2^50 was used. The RSV stock was prepared as described by Hallak et al.^51 and stored at −70° C. in the presence of 40% sucrose^52.
(§2) The viral infectivity (the plaque number-reduction) assay and the plaque size-reduction assay were carried out as described previously^17. […] Subsequently, the cells were washed with 2 mL of EMEM and overlaid with 1% methylcellulose solution in EMEM. The plaques were visualized by staining with crystal violet solution after 2 (HSV-2) or 3 (HSV-1) days of incubation at 37° C. […] When the compounds were screened for anti-HSV or anti-RSV activity, mixtures of 200 PFU of the virus and the test compound (100 μg/mL) in serum-free EMEM were incubated for 10 min at room temperature before addition to cells and during the entire period of viral infection of cells and the development of viral plaques. In the plaque size-reduction assay, the compounds were added to cells (in methylcellulose overlay medium) after 2 h period of virus infection of cells in the absence of the inhibitor. After 2-3 days of incubation at 37° C., the viral plaques were visualized by staining the cells with 1% solution of crystal violet. For each compound tested, the images of twenty neighboring plaques were captured using a Leica DC300 digital camera attached to a Leitz-Wetzlar Diavert microscope. The area of each plaque was determined using IM500 image software (Leica). Similar protocols were used for RSV, except that the assays were performed in HEp-2 cells and DMEM supplemented with 2% heat-inactivated fetal calf serum was used instead of EMEM.

RSV = experiment: Anti-RSV screening assay (viral plaques); format: cell-based; settings: 100 μg/mL, viral plaques relative to mock treated controls
Method: as §1, §2

HSV-1 [2] = experiment: Anti-HSV screening assay (viral plaques), HSV-1; format: cell-based; settings: 100 μg/mL, viral plaques relative to mock treated controls
Method: as §1, §2

GMK AH1 cells = experiment: Cytotoxicity assay, GMK AH1; format: cell-based, African green monkey; settings: cell viability reduced by 50%
Method: The assay was performed in GMK AH1 cells that had been seeded in 96 well cluster plates and reached approximately 80-90% confluence at day 2 of culture. The cells were washed with EMEM and incubated for 24 h at 37° C. with 100 μL of serial two-fold dilutions of the test compound in serum-free EMEM. The effect of the test compound on cell viability was measured by using the tetrazolium-based CellTiter96 assay according to the manufacturer's protocol (Promega, Madison, Wis., USA).

SMILES	Cytotoxicity CC50 HEp-2 (HEp-2 cells)	Selective index CC50/IC50 HSV-1 (HSV-1 [1])	Residual infectivity (%) RSV (RSV)	Residual infectivity (%) HSV-1 (HSV-1 [2])	Cytotoxicity CC50 GMK AH1 (GMK AH1 cells)
CC(C)CCCC(C)C1CCC2C3CCC4CC(OC5OC(COS(=O)(=O)O)C(OS(=O)(=O)O)C(OS(=O)(=O)O)C5OC5OC(COS(=O)(=O)O)C(OS(=O)(=O)O)C(OC6OC(COS(=O)(=O)O)C(OS(=O)(=O)O)C(OC7OC(COS(=O)(=O)O)C(OS(=O)(=O)O)C(OS(=O)(=O)O)C7OS(=O)(=O)O)C6OS(=O)(=O)O)C5OS(=O)(=O)O)CCC4(C)C3CCC12C [Compound 20, 3β-Cholestanyl 2,3,4,6-tetra-O-sodium sulfonato-α-D-mannopyranosyl-(1→3)-2,4,6-tri-O-sodium sulfonato-α-D-mannopyranosyl-(1→3)-2,4,6-tri-O-sodium sulfonato-α-D-mannopyranosyl-(1→2)-3,4,6-tri-O-sodium sulfonato-α-D-mannopyranoside]	113 µg/mL	52	0%	0%	110 µg/mL
CCCCCCCCCCCCOC1OC(COS(=O)(=O)O)C(OS(=O)(=O)O)C(OS(=O)(=O)O)C1OC1OC(COS(=O)(=O)O)C(OS(=O)(=O)O)C(OC2OC(COS(=O)(=O)O)C(OS(=O)(=O)O)C(OC3OC(COS(=O)(=O)O)C(OS(=O)(=O)O)C(OC4OC(COS(=O)(=O)O)C(OS(=O)(=O)O)C(OS(=O)(=O)O)C4OS(=O)(=O)O)C3OS(=O)(=O)O)C2OS(=O)(=O)O)C1OS(=O)(=O)O [Compound 4, Dodecyl 2,3,4,6-tetra-O-sodium sulfonato-α-D-mannopyranosyl-(1→3)-2,4,6-tri-O-sodium sulfonato-α-D-mannopyranosyl-(1→3)-2,4,6-tri-O-sodium sulfonato-α-D-mannopyranosyl-(1→3)-2,4,6-tri-O-sodium sulfonato-α-D-mannopyranosyl-(1→2)-3,4,6-tri-O-sodium sulfonato-α-D-mannopyranoside]	>400 µg/mL	> 190	0%	2%	>400 µg/mL
